# Data published in US20240033269A1, “PPARAXANTHINE-BASED COMPOSITIONS FOR INHIBITING INFLAMMATION, IMPROVING JOINT HEALTH, AND ENHANCING IMMUNE FUNCTION” (PX ING, LLC, priority 2022, published 2024).
# What was measured:
# Assay type in all cases: in vivo, Swiss Albino mice
# [1] = system: Th1; test: Th1 cells by flow cytometry after 28 days oral treatment
# Description: (§1) Sixteen 8-week-old male Swiss Albino mice were housed in an animal room at a constant temperature (22±3° C.) and humidity (30-70%) under a 12:12 h light-dark cycle with standard laboratory diet (Purina 5L79, Rat and Mouse 18% protein; PMI Nutrition International, Brentwood, MO, USA). Distilled water was provided ad libitum. All animal experiments were reviewed and approved by the Institutional Animal Ethical Committee (IAEC) of Radiant Research Services Pvt. Ltd. (Bangalore, India). All research was conducted in accordance with the guidelines of the committee for the purpose of control and supervision of experiments on animals.
# (§2) After one week of acclimation, the animals were randomly divided by body weight into two groups (n=8 per group in each test) for oral treatment once a day, at approximately the same time each day (±1 h), for 28 consecutive days: (1) vehicle control; (2) paraxanthine. The dose administered to the mice was calculated using US Food and Drug Administration for human equivalence doses (HED), assuming a human weight of 60 kg. The following HED were used in this study: 100 mg paraxanthine, (ENFINITY™, Ingenious Ingredients, L.P Lewisville, TX, USA; mouse dose: 20.5 mg/kg bw/day). […]
# [2] = system: iTreg; test: iTreg cells by flow cytometry after 28 days oral treatment
# Description: as §1, §2
# [3] = system: IL-6; test: Serum IL-6 by ELISA after 28 days oral treatment with treadmill exercise training
# Description: as §1
# (§3) After one week of acclimation, the animals were randomly divided by body weight into two groups (n=8 per group in each test) for oral treatment once a day, at approximately the same time each day (±1 h), for 28 consecutive days: (1) vehicle control; (2) paraxanthine. The dose administered to the mice was calculated using US Food and Drug Administration for human equivalence doses (HED), assuming a human weight of 60 kg. The following HED were used in this study: 100 mg paraxanthine, (ENFINITY™, Ingenious Ingredients, L.P Lewisville, TX, USA; mouse dose: 20.5 mg/kg bw/day).
# (§4) During the treatment period, exercise training was completed using a motorized treadmill (Exer 3/6, Columbus Instruments international, Columbus, OH, USA) at a moderate intensity of 20 cm/sec as maximal running speed, an incline of 10 degrees and a shock intensity of 0.2 mA, for 10 min. The speed of the treadmill was manually adjusted by increasing the belt speed by 5 cm/sec every 2 min throughout the total duration of 10 min. All animals were adapted to this procedure daily 60 min after dosing for 5 days in a week during the treatment period.
# (§5) On 29th day, blood was collected from retro-orbital route for biochemical analysis. IL-2, IL-6, IL-10, assay was done by using standard ELISA assay kit method. The Tfh,/iTreg assay was done by using flow cytometry method.
# [4] = system: IL-2; test: Serum IL-2 by ELISA after 28 days oral treatment with treadmill exercise training
# Description: as §1, §3, §4, §5
# [5] = system: Tfh; test: Tfh cells by flow cytometry after 28 days oral treatment
# Description: as §1, §2
# [6] = system: Th2; test: Th2 cells by flow cytometry after 28 days oral treatment
# Description: as §1, §2
# [7] = system: C-reactive protein (CRP); test: Blood C-reactive protein after 28 days oral treatment with treadmill exercise training
# Description: as §1, §3, §4, §5
# [8] = system: IL-10; test: Serum IL-10 by ELISA after 28 days oral treatment with treadmill exercise training
# Description: as §1, §3, §4, §5
# [9] = system: Th17; test: Th17 cells by flow cytometry after 28 days oral treatment
# Description: as §1, §2
# [10] = mice, 28 days oral, versus control
compound,measurement,setting,value
"Cn1c(=O)[nH]c2ncn(C)c2c1=O [Paraxanthine, 1,7-dimethyl-3H-purine-2,6-dione]",Delta Th1,"[1]; change versus control, day 29",−29.8%
same,Th1 (%),"[1]; mice, oral 20.5 mg/kg bw/day 28 days, blood on day 29, control 93.54 ± 2.82",65.68 ± 3.98 %
same,Delta iTreg,"[2]; change versus control, day 29",−56.5%
same,iTreg (%),"[2]; mice, oral 20.5 mg/kg bw/day 28 days, blood on day 29, control 54.47 ± 4.2",23.68 ± 2.62 %
same,Delta IL-6,"[3]; change versus control, day 29",−7.7%
same,effect on pro-inflammatory cytokine IL-6 (in words),[3]; [10],reduced
same,IL-6 (pg/ml) Pro-inflammatory,"[3]; mice, oral once daily 28 days (paraxanthine 20.5 mg/kg bw/day), blood on day 29, control 369.04 ± 13",340.6 ± 13.6 pg/mL
same,Delta IL-2,"[4]; change versus control, day 29",+23.1%
same,effect on IL-2 (in words),[4]; [10],increased
same,IL-2 (ng/L) Adaptive Immunity,"[4]; mice, oral once daily 28 days (paraxanthine 20.5 mg/kg bw/day), blood on day 29, control 37.29 ± 1.88",45.91 ± 2.68 ng/L
same,Delta Tfh,"[5]; change versus control, day 29",+602.8%
same,Tfh (%),"[5]; mice, oral 20.5 mg/kg bw/day 28 days, blood on day 29, control 7.82 ± 1.04",54.96 ± 4.44 %
same,Delta Th2,"[6]; change versus control, day 29",+368.0%
same,Th2 (%),"[6]; mice, oral 20.5 mg/kg bw/day 28 days, blood on day 29, control 11.46 ± 3.16",53.63 ± 3.85 %
same,Delta CRP,"[7]; change versus control, day 29",−18.3%
same,effect on C-reactive protein (CRP) (in words),[7]; [10],reduced
same,CRP (mg/L) Inflammation,"[7]; mice, oral once daily 28 days (paraxanthine 20.5 mg/kg bw/day), blood on day 29, control 0.77 ± 0.09",0.64 ± 0.07 mg/L
same,Delta IL-10,"[8]; change versus control, day 29",+8.3%
same,effect on anti-inflammatory cytokine IL-10 (in words),[8]; [10],increased
same,IL-10 (pg/ml) Anti-inflammatory,"[8]; mice, oral once daily 28 days (paraxanthine 20.5 mg/kg bw/day), blood on day 29, control 527.86 ± 9.22",571.71 ± 16.43 pg/mL
same,Delta Th17,"[9]; change versus control, day 29",+758.4%
same,Th17 (%),"[9]; mice, oral 20.5 mg/kg bw/day 28 days, blood on day 29, control 3.65 ± 0.85",31.33 ± 1.31 %
